Question: With COC(=O)Cn1c(=O)[nH]c2ccccc2c1=O as the compound, how does the melting point read?
Answer: 205 to 206 °C

Question: With COc1ccccc1OCCN1CCC(Cc2c[nH]c3ccc(F)cc23)CC1 as the compound, how does the melting point read?
Answer: 91 °C

Question: With COc1cc(Nc2c(C#N)cnc3cc(C#Cc4cccnc4)sc23)c(Cl)cc1Cl as the compound, how does the melting point read?
Answer: 249 to 250 °C

Question: For CC1=CC(=O)N(c2cc(-n3c(=O)n(C)c(=O)n(CC(=O)OC(C)C)c3=O)c(Cl)cc2F)C1=O, which melting point is on record?
Answer: 110 to 120 °C

Question: For CCCc1nc2ccc(N(C)C)nn2c1S(N)(=O)=O, which melting point is on record?
Answer: 215 to 217 °C

Question: With COC(=O)c1ccc2oc3c(c(=O)c2c1)CCC3=Cc1ccc(N)cc1 as the compound, how does the melting point read?
Answer: 265 to 268 °C

Question: Which melting point does the source give for Nc1nc(NCCc2ccc(C=CC3CCCCC3)cc2)nc2c1ncn2C1OC(CO)C(O)C1O (centres undefined) here?
Answer: 161 to 164 °C

Question: With CC1(C)OC(=O)N(c2ccc(F)c(F)c2)c2ccccc21 as the compound, how does the melting point read?
Answer: 207 to 208 °C

Question: Which melting point does the source give for N#Cc1cccc(CCC(=O)c2c(O)c3cccnc3n(-c3ccccc3)c2=O)c1 here?
Answer: 219 to 220 °C

Question: With CCc1nn(-c2ccc(F)cc2)c2cc(C(=O)Nc3c(Cl)cncc3Cl)ccc12 as the compound, how does the melting point read?
Answer: 197 to 199 °C

Question: Which melting point does the source give for Cn1cc(C(O)(c2ccc3c(cnn3C(=O)C3CCC3)c2)C(F)(F)F)c2ccccc21 (centres undefined) here?
Answer: 79 to 81 °C

Question: For CCCCN(CC)c1nc(C)nc2c1c(C)cn2-c1c(C)cc(CF)cc1C, which melting point is on record?
Answer: 163 to 165 °C

Question: With Cn1c(/C=C/C(O)CC(O)CC(=O)O)c(-c2ccccc2)c2ccccc2c1=O (centres undefined) as the compound, how does the melting point read?
Answer: 170 °C

Question: With NS(=O)(=O)OCCOc1cccc(OCCOS(N)(=O)=O)c1 as the compound, how does the melting point read?
Answer: 147 to 149 °C

Question: With CCCCC(CC)CNc1nc(N)nc(N)n1 (centres undefined) as the compound, how does the melting point read?
Answer: 81 °C

Question: With CS(=O)(=O)c1ccc(-c2cc(C=O)sc2-c2ccc(F)cc2)cc1 as the compound, how does the melting point read?
Answer: 165 to 166 °C

Question: Which melting point does the source give for C=C1C(=O)C2CCC1(C)C2(C)C (centres undefined) here?
Answer: 69 to 75 °C

Question: For CC(C)(Cn1c(CO)nc2c(N)nc3ccccc3c21)NS(C)(=O)=O, which melting point is on record?
Answer: 262 to 265 °C

Question: With O=C(c1ccc(Oc2ccccc2)cc1)c1cccc(C(=O)c2ccc(Oc3ccccc3)cc2)c1 as the compound, how does the melting point read?
Answer: 117 to 119 °C

Question: For C=CC(=O)N1Cc2ccccc2SC(Cl)C1 (centres undefined), which melting point is on record?
Answer: 66 to 68 °C

Question: For C1CCC(N2CCCC2)C2NCCCC2C1 (centres undefined), which melting point is on record?
Answer: 30 to 35 °C

Question: Which melting point does the source give for O=C(Nc1ccc(Cl)c(C(F)(F)F)c1)Nc1ccc(OCc2ccccc2)cc1O here?
Answer: 182 to 184 °C

Question: For CC(C)(C)OC(=O)N1CCNC[C@H]1C(c1ccccc1)c1ccccc1, which melting point is on record?
Answer: 100 to 105 °C

Question: Which melting point does the source give for Nc1cccc(Oc2ccc(-c3ccc(Oc4cccc(N)c4)cc3)cc2)c1 here?
Answer: 144 to 146 °C

Question: With CNc1cnn(-c2ccc(F)cc2)c(=O)c1-c1cccc(C(F)(F)F)c1 as the compound, how does the melting point read?
Answer: 161 to 162 °C

Question: Which melting point does the source give for C=CCn1cc(F)cnc1=O here?
Answer: 88 to 90 °C

Question: Which melting point does the source give for COC(=O)c1ccc(NC(=O)CNc2ccccc2F)cc1 here?
Answer: 169 to 171 °C

Question: Which melting point does the source give for CC(C)c1cccc2c1C(=O)NS2(=O)=O here?
Answer: 177 °C

Question: For N#CCCNC(=O)c1cccc(-c2cccc3cc(Cc4cccc(C(F)(F)F)c4)[nH]c23)c1, which melting point is on record?
Answer: 174 to 178 °C

Question: Which melting point does the source give for COC(=O)c1ccc(C[C@H](NC(=O)OCc2ccccc2)C(=O)O)cc1 here?
Answer: 102 to 106 °C

Question: Which melting point does the source give for O=C(Nc1cc(Cl)cc(Cl)c1)Nc1ccc(Cl)cc1-c1nnn[nH]1 here?
Answer: 234 to 236 °C

Question: With COc1cc2[nH]c(N3CCCN(C(=O)N4CCOCC4)CC3)nc(=O)c2c(C)c1OC as the compound, how does the melting point read?
Answer: 237 to 238 °C

Question: Which melting point does the source give for CC(C)(C)OC(=O)NC1(CCC(=O)O)CC=CO1 (centres undefined) here?
Answer: 99 to 101 °C

Question: With COc1ccc(CCc2ccc(NC(=O)C(=O)c3ccccc3O)cc2)cc1OC as the compound, how does the melting point read?
Answer: 124 to 125 °C

Question: Which melting point does the source give for CC(=O)OC(C)c1ccc(Cl)c2nc3n(c12)CCCN3c1ccc(Cl)cc1Cl (centres undefined) here?
Answer: 204 to 206 °C

Question: Which melting point does the source give for CCOC(=O)Cc1coc2c(OC)ccc(C(=O)Cc3ccncc3)c12 here?
Answer: 111 to 117 °C

Question: Which melting point does the source give for CC(=O)OC1CCC2(C)C(=CCC3C2CCC2(C)C(C(C)CCCC(C)(C)C)CCC32)C1 (centres undefined) here?
Answer: 152 to 153 °C

Question: With COc1cc(OC)cc(C(=O)NNC(=O)Nc2cccc3c2C(=O)c2c-3n[nH]c2-c2ccc(N3CCNCC3)cc2)c1 as the compound, how does the melting point read?
Answer: > 300 °C

Question: With CCCCCCCCC1C=CC(/C=C/c2ccc(C(=O)O)o2)=C2N=C3CCCC(C)(C)C3=C21 (centres undefined) as the compound, how does the melting point read?
Answer: 115 to 117 °C

From a melting point compilation (Tetko et al.; mined from patent text by program, amines drawn as free bases though some values may be those of a salt)
